Results: patent US20250177359A1, “COMPOUNDS FOR USE IN THE TREATMENT OF CANCER AND INFLAMMATORY CONDITIONS” (priority 2022, published 2025)

Biological target: T1, PARP15 (Homo sapiens, UniProt Q460N3)
T1 sequence (Q460N3 1-678): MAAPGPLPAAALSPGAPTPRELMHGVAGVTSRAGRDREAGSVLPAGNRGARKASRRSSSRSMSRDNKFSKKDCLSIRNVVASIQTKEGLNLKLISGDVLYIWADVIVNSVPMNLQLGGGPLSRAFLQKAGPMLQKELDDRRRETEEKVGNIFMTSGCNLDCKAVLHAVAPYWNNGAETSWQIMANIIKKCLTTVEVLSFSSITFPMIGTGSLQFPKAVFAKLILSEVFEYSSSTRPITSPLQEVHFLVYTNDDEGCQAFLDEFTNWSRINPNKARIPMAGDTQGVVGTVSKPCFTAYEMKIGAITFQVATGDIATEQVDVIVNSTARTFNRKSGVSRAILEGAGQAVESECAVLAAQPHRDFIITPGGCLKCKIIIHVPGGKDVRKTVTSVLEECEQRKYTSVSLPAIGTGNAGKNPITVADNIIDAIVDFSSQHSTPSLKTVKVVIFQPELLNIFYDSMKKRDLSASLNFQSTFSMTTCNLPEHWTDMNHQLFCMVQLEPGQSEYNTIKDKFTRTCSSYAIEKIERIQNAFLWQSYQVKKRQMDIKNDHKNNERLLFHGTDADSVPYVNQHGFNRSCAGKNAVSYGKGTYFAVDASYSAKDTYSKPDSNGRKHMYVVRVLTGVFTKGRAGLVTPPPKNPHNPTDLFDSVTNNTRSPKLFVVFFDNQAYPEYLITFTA
Assay: biochemical

Question: Which IC50 does the source give for `Nc1nnc2sc3cc(O)ccc3n12` [Compound 109, 3-Amino[1,2,4]triazolo[3,4-b][1,3]benzothiazol-7-ol] here?
Answer: 680 nM
